Test results reported in patent publication US8685724B2, “In vitro techniques for use with stem cells” (Kwalata Trading Limited, priority 2004, dated 2014).

Tests used:
first-pass cells [1] = experiment: Enrichment of EPCs from first-pass cells on plasma-coated flasks in the presence of progesterone, flow-cytometry staining; type: cell-based, human; settings: 0.02-2 microgram/ml progesterone, 5-20% autologous serum, VEGF, Heparin, 3 experiments
Protocol: Coating T-75 Flasks with Autologous Plasma Example 2 for High % Serum Medium Culturing Collection of Cells for FACS Staining FACS Staining In a set of separate experiments, enrichment of EPCs from first-pass cells was evaluated following in-vitro growth on autologous plasma-coated T-75 Flasks in the presence of medium containing autologous serum, VEGF, progesterone and Heparin. These experiments were conducted with human blood, using the protocol described hereinabove. […] FACS staining results of cells cultured in media containing 5-20% autologous serum (typically 10%), 1, 2, 10, or 20 ng/ml VEGF, 0.02-2 microgram/ml progesterone and 5-25 IU/ml Heparin are summarized. The following surface markers were analyzed: CD45 (a pan-lymphocyte marker), the stem/progenitor cell markers CD34 and CD117, and the EPC/endothelial cell markers CD133 and KDR (VEGF-R).

first-pass cells [2] = experiment: Enrichment of EPCs from first-pass cells on plasma-coated flasks in the presence of 17-β-estradiol, flow-cytometry staining; type: cell-based, human; settings: 0.002-2 microgram/ml 17-β-Estradiol, 5-20% autologous serum, VEGF, Heparin, 3 experiments
Protocol: Coating T-75 Flasks with Autologous Plasma Example 3 for High % Serum Medium Culturing Collection of Cells for FACS Staining FACS Staining In a set of separate experiments, enrichment of EPCs from first-pass cells was evaluated following in-vitro growth on autologous plasma-coated T-75 Flasks in the presence of medium containing autologous serum, VEGF, 17-beta-estradiol and Heparin. These were experiments conducted with human blood, using the protocol described hereinabove. […] FACS staining results of cells cultured in media containing 5-20% autologous serum (typically 10%), 1, 2, 10, or 20 ng/ml VEGF, 0.002-2 microgram/ml 17-β-Estradiol and 5-25 IU/ml Heparin are summarized. The following surface markers were analyzed: CD45 (a pan-lymphocyte marker), the stem/progenitor cell markers CD34 and CD117, and the EPC/endothelial cell markers CD133, and KDR (VEGF-R).

Row | Structure (SMILES) | CD34 AVG percentage staining (first-pass cells [1]) | CD45 AVG percentage staining (first-pass cells [1]) | CD117 AVG percentage staining (first-pass cells [1]) | CD133 AVG percentage staining (first-pass cells [1]) | KDR AVG percentage staining (first-pass cells [1]) | CD34 average percentage staining (first-pass cells [2]) | CD45 average percentage staining (first-pass cells [2]) | CD117 average percentage staining (first-pass cells [2]) | CD133 average percentage staining (first-pass cells [2]) | KDR average percentage staining (first-pass cells [2])
1 | CC(=O)[C@H]1CC[C@H]2[C@@H]3CCC4=CC(=O)CC[C@]4(C)[C@H]3CC[C@]12C [progesterone] | 21.22% | 94.82% | 5.54% | 5.72% | 1.05% | – | – | – | – | –
2 | C[C@]12CC[C@@H]3c4ccc(O)cc4CC[C@H]3[C@@H]1CC[C@@H]2O [17-β-estradiol] | – | – | – | – | – | 4.12% | 96.14% | 1.41% | 1.77% | 0.28%
